According to patent publication US10596127B2, “Composition for reducing the frequency of urination, method of making and use thereof” (WELLESLEY PHARMACEUTICALS, LLC, priority 2013, dated 2020):
Blank lines part the entries; values can stand above or below the compound they belong to.

What was measured:
[1] = system: COX2 expression by mouse bladder cells; assay: Cell-based ELISA of total COX2 in mouse bladder cells; details: for induction of COX2 responses by analgesic alone: 5 μM or 50 μM, 24-hour cultures, no stimulus; for effect on the effect of LPS on COX2 levels: LPS (1 μg/ml), analgesic at either 5 μM or 50 μM
Experimental: Bladder cells were removed from euthanized animals C57BL/6 mice (8-12 weeks old) and cells were isolated by enzymatic digestion followed by purification on a Percoll gradient. Briefly, bladders from 10 mice were minced with scissors to fine slurry in 10 ml of digestion buffer (RPMI 1640, 2% fetal bovine serum, 0.5 mg/ml collagenase, 30 μg/ml DNase). Bladder slurries were enzymatically digested for 30 minutes at 37° C. Undigested fragments were further dispersed through a cell-trainer. The cell suspension was pelleted and added to a discontinue 20%, 40% and 75% Percoll gradient for purification on mononuclear cells. Each experiment used 50-60 bladders.
After washes in RPMI 1640, bladder cells were resuspended RPMI 1640 supplemented with 10% fetal bovine serum, 15 mM HEPES, 2 mM L-glutamine, 100 U/ml penicillin, and 100 μg/ml of streptomycin and seeded in clear-bottom black 96-well cell culture microculture plates at a cell density of 3×10^4 cells per well in 100 μl. Cells were cultured at 37° C. in a 5% CO2 atmosphere.
Bladder cells were treated with analgesic solutions (50 well) either alone or together with carbachol (10-Molar, 50 μl/well), as an example of non-inflammatory stimuli, or lipopolysaccharide (LPS) of Salmonella typhimurium (1 μg/ml, 50 μl/well), as an example of […] stimuli. When no other effectors were added to the cells, 50 μl of RPMI 1640 without fetal bovine serum were added to the wells to adjust the final volume to 200 μl.
After 24 hours of culture, 150 μl of culture supernatants were collected, spun down for 2 min at 8,000 rpm at 4° C. to remove cells and debris and stored at −70° C. for analysis of Prostaglandin E2 (PGE2) responses by ELISA. Cells were fixed, permeabilized and blocked for detection of Cyclooxygenase-2 (COX2) using a fluorogenic substrate. In selected experiment cells were stimulated 12 hours in vitro for analysis of COX2 responses
COX2 responses were analyzed by a Cell-Based ELISA using Human/mouse total COX2 immunoassay (R&D Systems), following the instructions of the manufacturer. Briefly, after cells fixation and permeabilization, a mouse anti-total COX2 and a rabbit anti-total GAPDH were added to the wells of the clear-bottom black 96-well cell culture microculture plates. After incubation and washes, an HRP-conjugated anti-mouse IgG and an AP-conjugated anti-rabbit IgG were added to the wells. Following another incubation and set of washes, the HRP- and AP-fluorogenic substrates were added. Finally, a Victor® V multilabel plate reader (PerkinElmer) was used to read the fluorescence emitted at 600 nm (COX2 fluorescence) and 450 nm (GAPDH fluorescence). Results are expressed as relative levels of total COX2 as determined by relative fluorescence unit (RFUs) and normalized to the housekeeping protein GAPDH.

[2] = Serum levels of analgesic in human blood after oral therapeutic doses; assay type: in vivo; details: adult humans, conversion of mg/L by molecular weight
Text: Table 3 summarizes the results of several studies that measured serum levels of analgesic after oral therapeutic doses in adult humans. […] Therefore, the doses of analgesic tested in vitro in Table 2 cover the range of concentrations achievable in vivo in humans.

[3] = Inhibition of the urge to urinate in volunteer subjects; assay type: in vivo, human
Text: Twenty volunteer subjects, both male and female were enrolled, each of which experienced premature urge or desire to urinate, interfering with their ability to sleep for a sufficient period of time to feel adequately rested. […] At least 14 subjects reported that they were able to rest better because they were not being awakened as frequently by the urge to urinate.

[4] = LPS (1 μg/ml) plus analgesic 5 μM, LPS alone 420 ± 26, unstimulated 158 ± 18
[5] = LPS (1 μg/ml) plus analgesic 50 μM, LPS alone 420 ± 26, unstimulated 158 ± 18

SMILES: C[N+](C)(C)CCOC(N)=O [Carbachol, carbachol]
- Total COX2 levels (Normalized RFUs) ([1]; stimulus alone, no analgesic (LPS 1 μg/ml, Carbachol (mM)), unstimulated 158 ± 18): 149 ± 21 Normalized RFUs
- Total COX2 levels (Normalized RFUs) ([1]; stimulus alone, no analgesic (LPS 1 μg/ml, Carbachol (mM)), unstimulated 158 ± 18, listed as carbachol): no significant effect

- Maximum serum levels after oral therapeutic doses [2]: ≤ 260 µM
SMILES: COc1ccc2cc([C@H](C)C(=O)O)ccc2c1 [Naproxen]
- induction of COX2 responses by analgesic alone [1]: none of the analgesics tested induced COX2 responses
- Total COX2 levels (Normalized RFUs) [1, 4]: 284 ± 11 Normalized RFUs
- Total COX2 levels (Normalized RFUs) [1, 5]: 279 ± 23 Normalized RFUs
- effect on the effect of LPS on COX2 levels [1]: suppress

SMILES: CC(=O)Oc1ccccc1C(=O)O [Aspirin, Acetylsalicylic acid]
- induction of COX2 responses by analgesic alone [1]: none of the analgesics tested induced COX2 responses
- Total COX2 levels (Normalized RFUs) [1, 4]: 240 ± 17 Normalized RFUs
- Total COX2 levels (Normalized RFUs) [1, 5]: 258 ± 21 Normalized RFUs
- effect on the effect of LPS on COX2 levels [1]: suppress

SMILES: CC(=O)Nc1ccc(O)cc1 [Acetaminophen, N-acetyl-para-aminophenol]
- induction of COX2 responses by analgesic alone [1]: none of the analgesics tested induced COX2 responses
- Total COX2 levels (Normalized RFUs) [1, 4]: 275 ± 12 Normalized RFUs
- Total COX2 levels (Normalized RFUs) [1, 5]: 243 ± 15 Normalized RFUs
- effect on the effect of LPS on COX2 levels [1]: suppress

SMILES: CC(C)Cc1ccc(C(C)C(=O)O)cc1 (stereo not drawn) [Ibuprofen, ibuprofen]
- benefit of less frequent urges to urinate after several weeks of nightly use ([3]; several subjects): no longer being realized
- benefit after several days of abstaining from taking the dosages ([3]; subjects who had lost the benefit): return of the benefit
- subjects who reported that they were able to rest better because they were not being awakened as frequently by the urge to urinate ([3]; twenty volunteer subjects, 400-800 mg as a single dose prior to bedtime): At least 14 subjects
